# Organism: Rattus norvegicus
# Test: DrugMatrix - Regimen: Daily Repeat
# Assay type: toxicity, organism-based, Sprague-Dawley
# Parameters: regimen Daily Repeat, gender Male, age 6-8 weeks
# Conditions: in vivo, po, route oral GAVAGE, […]; for ABSOLUTE BASOPHIL / ABSOLUTE EOSINOPHIL / ABSOLUTE LYMPHOCYTE / ABSOLUTE MONOCYTE / ABSOLUTE SEGMENTED NEUTROPHIL / BASOPHIL / EOSINOPHIL / ERYTHROCYTE COUNT / HEMATOCRIT / HEMOGLOBIN / LEUKOCYTE COUNT / LYMPHOCYTE / MEAN CORPUSCULAR HEMOGLOBIN / MEAN CORPUSCULAR HEMOGLOBIN CONCENTRATION / MEAN CORPUSCULAR VOLUME / MONOCYTE / NEUTROPHIL / NUCLEATED RED BLOOD CELLS / PLATELET COUNT: tissue Blood; for ALANINE AMINOTRANSFERASE / ALBUMIN / ALKALINE PHOSPHATASE / ASPARTATE AMINOTRANSFERASE / BLOOD UREA NITROGEN / CARBON DIOXIDE / CHLORIDE / CHOLESTEROL / CREATINE PHOSPHOKINASE / CREATININE / GLUCOSE / LACTATE DEHYDROGENASE / LIPASE / PHOSPHORUS / POTASSIUM / SODIUM / TOTAL BILIRUBIN / TOTAL PROTEIN / URIC ACID: tissue Plasma
# [1] = 0 mg/kg, 72 h, dose level Control, time 3 day
# [2] = 0 mg/kg, 120 h, dose level Control, time 5 day
# [3] = 20 mg/kg, 72 h, dose level Low, time 3 day
# [4] = 20 mg/kg, 120 h, dose level Low, time 5 day
smiles,measurement,setting,value
O=c1c(-c2ccc(O)cc2)coc2cc(O)cc(O)c12 [GENISTEIN],ABSOLUTE BASOPHIL,[1],0 CELLS/uL
same,ABSOLUTE EOSINOPHIL,[1],14 CELLS/uL
same,ABSOLUTE LYMPHOCYTE,[1],11144.67 CELLS/uL
same,ABSOLUTE MONOCYTE,[1],22.5 CELLS/uL
same,ABSOLUTE SEGMENTED NEUTROPHIL,[1],535.5 CELLS/uL
same,BASOPHIL,[1],0%
same,EOSINOPHIL,[1],0.17%
same,ERYTHROCYTE COUNT,[1],5.08 x10E6/uL
same,HEMATOCRIT,[1],32.32%
same,HEMOGLOBIN,[1],12.87 G/DL
same,LEUKOCYTE COUNT,[1],11.72 x10E3/uL
same,LYMPHOCYTE,[1],94.67%
same,MEAN CORPUSCULAR HEMOGLOBIN,[1],25.37 pg
same,MEAN CORPUSCULAR HEMOGLOBIN CONCENTRATION,[1],39.85 G/DL
same,MEAN CORPUSCULAR VOLUME,[1],63.58 fL
same,MONOCYTE,[1],0.17%
same,NEUTROPHIL,[1],5%
same,NUCLEATED RED BLOOD CELLS,[1],0 /100WBC
same,PLATELET COUNT,[1],1084 x10E3/uL
same,ALANINE AMINOTRANSFERASE,[1],67.5 u/L
same,ALBUMIN,[1],4.02 G/DL
same,ALKALINE PHOSPHATASE,[1],374.17 u/L
same,ASPARTATE AMINOTRANSFERASE,[1],83.5 u/L
same,BLOOD UREA NITROGEN,[1],14.5 mg/dL
same,CARBON DIOXIDE,[1],30 mmol/L
same,CHLORIDE,[1],100.5 MEQ/L
same,CHOLESTEROL,[1],71.33 mg/dL
same,CREATINE PHOSPHOKINASE,[1],268.33 u/L
same,CREATININE,[1],0.16 mg/dL
same,GLUCOSE,[1],170.5 mg/dL
same,LACTATE DEHYDROGENASE,[1],81.17 u/L
same,LIPASE,[1],16.67 u/L
same,PHOSPHORUS,[1],10.07 mg/dL
same,POTASSIUM,[1],5.03 MEQ/L
same,SODIUM,[1],142.92 MEQ/L
same,TOTAL BILIRUBIN,[1],0.17 mg/dL
same,TOTAL PROTEIN,[1],5.63 G/DL
same,URIC ACID,[1],0.5 mg/dL
same,ABSOLUTE BASOPHIL,[2],0 CELLS/uL
same,ABSOLUTE EOSINOPHIL,[2],37.5 CELLS/uL
same,ABSOLUTE LYMPHOCYTE,[2],8049.5 CELLS/uL
same,ABSOLUTE MONOCYTE,[2],82.83 CELLS/uL
same,ABSOLUTE SEGMENTED NEUTROPHIL,[2],646.83 CELLS/uL
same,BASOPHIL,[2],0%
same,EOSINOPHIL,[2],0.5%
same,ERYTHROCYTE COUNT,[2],5.36 x10E6/uL
same,HEMATOCRIT,[2],33.9%
same,HEMOGLOBIN,[2],13.02 G/DL
same,LEUKOCYTE COUNT,[2],8.82 x10E3/uL
same,LYMPHOCYTE,[2],90.17%
same,MEAN CORPUSCULAR HEMOGLOBIN,[2],24.32 pg
same,MEAN CORPUSCULAR HEMOGLOBIN CONCENTRATION,[2],38.42 G/DL
same,MEAN CORPUSCULAR VOLUME,[2],63.32 fL
same,MONOCYTE,[2],1.17%
same,NEUTROPHIL,[2],8.17%
same,NUCLEATED RED BLOOD CELLS,[2],0.17 /100WBC
same,PLATELET COUNT,[2],1231.5 x10E3/uL
same,ALANINE AMINOTRANSFERASE,[2],62 u/L
same,ALBUMIN,[2],3.97 G/DL
same,ALKALINE PHOSPHATASE,[2],303.67 u/L
same,ASPARTATE AMINOTRANSFERASE,[2],84.5 u/L
same,BLOOD UREA NITROGEN,[2],14.83 mg/dL
same,CARBON DIOXIDE,[2],31.83 mmol/L
same,CHLORIDE,[2],97 MEQ/L
same,CHOLESTEROL,[2],68.83 mg/dL
same,CREATINE PHOSPHOKINASE,[2],411.33 u/L
same,CREATININE,[2],0.16 mg/dL
same,GLUCOSE,[2],170.17 mg/dL
same,LACTATE DEHYDROGENASE,[2],88.5 u/L
same,LIPASE,[2],9.5 u/L
same,PHOSPHORUS,[2],9.98 mg/dL
same,POTASSIUM,[2],5.72 MEQ/L
same,SODIUM,[2],141.62 MEQ/L
same,TOTAL BILIRUBIN,[2],0.1 mg/dL
same,TOTAL PROTEIN,[2],5.67 G/DL
same,URIC ACID,[2],0.52 mg/dL
same,ABSOLUTE BASOPHIL,[3],0 CELLS/uL
same,ABSOLUTE EOSINOPHIL,[3],0 CELLS/uL
same,ABSOLUTE LYMPHOCYTE,[3],8352.33 CELLS/uL
same,ABSOLUTE MONOCYTE,[3],117.33 CELLS/uL
same,ABSOLUTE SEGMENTED NEUTROPHIL,[3],697 CELLS/uL
same,BASOPHIL,[3],0%
same,EOSINOPHIL,[3],0%
same,ERYTHROCYTE COUNT,[3],4.71 x10E6/uL
same,HEMATOCRIT,[3],30.2%
same,HEMOGLOBIN,[3],12.1 G/DL
same,LEUKOCYTE COUNT,[3],9.17 x10E3/uL
same,LYMPHOCYTE,[3],91%
same,MEAN CORPUSCULAR HEMOGLOBIN,[3],25.73 pg
same,MEAN CORPUSCULAR HEMOGLOBIN CONCENTRATION,[3],40.07 G/DL
same,MEAN CORPUSCULAR VOLUME,[3],64.27 fL
same,MONOCYTE,[3],1.33%
same,NEUTROPHIL,[3],7.67%
same,NUCLEATED RED BLOOD CELLS,[3],0 /100WBC
same,PLATELET COUNT,[3],970.67 x10E3/uL
same,ALANINE AMINOTRANSFERASE,[3],69.33 u/L
same,ALBUMIN,[3],3.73 G/DL
same,ALKALINE PHOSPHATASE,[3],415.33 u/L
same,ASPARTATE AMINOTRANSFERASE,[3],87 u/L
same,BLOOD UREA NITROGEN,[3],14 mg/dL
same,CARBON DIOXIDE,[3],31.33 mmol/L
same,CHLORIDE,[3],101.33 MEQ/L
same,CHOLESTEROL,[3],55.33 mg/dL
same,CREATINE PHOSPHOKINASE,[3],256 u/L
same,CREATININE,[3],0.16 mg/dL
same,GLUCOSE,[3],157.33 mg/dL
same,LACTATE DEHYDROGENASE,[3],72 u/L
same,LIPASE,[3],10.33 u/L
same,PHOSPHORUS,[3],9.33 mg/dL
same,POTASSIUM,[3],5.54 MEQ/L
same,SODIUM,[3],144.67 MEQ/L
same,TOTAL BILIRUBIN,[3],0.2 mg/dL
same,TOTAL PROTEIN,[3],5.43 G/DL
same,URIC ACID,[3],0.37 mg/dL
same,ABSOLUTE BASOPHIL,[4],0 CELLS/uL
same,ABSOLUTE EOSINOPHIL,[4],0 CELLS/uL
same,ABSOLUTE LYMPHOCYTE,[4],8287 CELLS/uL
same,ABSOLUTE MONOCYTE,[4],65 CELLS/uL
same,ABSOLUTE SEGMENTED NEUTROPHIL,[4],1548 CELLS/uL
same,BASOPHIL,[4],0%
same,EOSINOPHIL,[4],0%
same,ERYTHROCYTE COUNT,[4],4.93 x10E6/uL
same,HEMATOCRIT,[4],31.57%
same,HEMOGLOBIN,[4],12.13 G/DL
same,LEUKOCYTE COUNT,[4],9.9 x10E3/uL
same,LYMPHOCYTE,[4],84%
same,MEAN CORPUSCULAR HEMOGLOBIN,[4],24.67 pg
same,MEAN CORPUSCULAR HEMOGLOBIN CONCENTRATION,[4],38.43 G/DL
same,MEAN CORPUSCULAR VOLUME,[4],64.13 fL
same,MONOCYTE,[4],1%
same,NEUTROPHIL,[4],15%
same,NUCLEATED RED BLOOD CELLS,[4],0.33 /100WBC
same,PLATELET COUNT,[4],1213.67 x10E3/uL
same,ALANINE AMINOTRANSFERASE,[4],61.33 u/L
same,ALBUMIN,[4],3.83 G/DL
same,ALKALINE PHOSPHATASE,[4],296.67 u/L
same,ASPARTATE AMINOTRANSFERASE,[4],87.33 u/L
same,BLOOD UREA NITROGEN,[4],17 mg/dL
same,CARBON DIOXIDE,[4],33 mmol/L
same,CHLORIDE,[4],98.5 MEQ/L
same,CHOLESTEROL,[4],69.67 mg/dL
same,CREATINE PHOSPHOKINASE,[4],277.33 u/L
same,CREATININE,[4],0.12 mg/dL
same,GLUCOSE,[4],143.33 mg/dL
same,LACTATE DEHYDROGENASE,[4],87.67 u/L
same,LIPASE,[4],11.67 u/L
same,PHOSPHORUS,[4],10.4 mg/dL
same,POTASSIUM,[4],5.69 MEQ/L
same,SODIUM,[4],143.35 MEQ/L
same,TOTAL BILIRUBIN,[4],0.0667 mg/dL
same,TOTAL PROTEIN,[4],5.57 G/DL
same,URIC ACID,[4],0.43 mg/dL

# Reference: ChEMBL document CHEMBL3885881, “DrugMatrix”
